Laboratory results: PMC10712727, “Safety, Tolerability, and Pharmacokinetics of Senaparib, a Novel PARP1/2 Inhibitor, in Chinese Patients With Advanced Solid Tumors: A Phase I Trial” (The Oncologist, 2023)

Tested on: patients with advanced solid tumors
Test: Safety: treatment-emergent and senaparib-related adverse events graded per NCI CTCAE v4.03
Assay type: in vivo
Description: This phase I, open-label, multicenter, dose-escalation, and dose-expansion study was conducted at three national clinical institutions in China. […] At baseline, all patients enrolled in the dose-escalation phase had to have at least one evaluable lesion, and those in the dose-expansion period had to have at least one measurable lesion, according to Response Evaluation Criteria in Solid Tumors version 1.1 (RECIST v1.1).[16] Entry to the dose-expansion cohort required the presence of a BRCA mutation, with the exception of patients with ovarian carcinoma, fallopian tube carcinoma, and primary peritoneal carcinoma. Full study eligibility criteria are provided in Supplementary Table S1.
Dose escalation was conducted using a modified Fibonacci 3 + 3 method (Supplementary Fig. S1).[17] Patients were administered oral senaparib from a planned starting dose of 2 mg once daily (QD), with preliminary dose escalation to 120 mg via nine dose groups, in order of their entry into the study. At a given dose level, each patient received a single dose of senaparib followed by a 7-day washout period. They then entered a continuous dosing period to confirm the safety and PK profile, in which they received senaparib QD from day 1 to day 21 of each 3-week cycle. Progression to the next higher dose required approval from the Data Safety Monitoring Committee (DSMC) upon review of the safety and PK data of the previous dose. A 50-mg twice-daily (BID) dosing group was added (planned enrollment, n = 6 patients) based on a DSMC review of the safety, PK, and efficacy analysis of the completed QD dose groups in the phase I clinical trial of senaparib dose escalation in Australia (NCT03507543), which commenced prior to the start of this trial.
The dose-expansion period included 3 populations: dose groups in which at least one patient achieved complete response (CR) or partial response (PR) per RECIST v1.1[16] and 1 dose group higher (evaluated for safety), as well as the dose group at the maximum tolerated dose (MTD)/recommended phase II dose (RP2D). Each of these groups included those patients in the respective dose-escalation group plus a planned additional 10 patients (approximately 20 patients in the MTD/RP2D group) with BRCA^mut+ solid tumors (ovarian, breast, or prostate cancer were preferred, and ovarian cancer could be BRCA wild type). Patients received senaparib monotherapy orally QD or BID (50-mg dose only) over each 3-week cycle until disease progression or unacceptable toxicity.
DLTs were predefined toxicities (Supplementary Table S2) recorded over the 7 days following the single-dose administration of senaparib and during the first treatment cycle (day 1-day 21) for each dose group in the dose-escalation period only. The MTD was defined as the maximum dose at which ≤1/6 patients experienced a DLT. Senaparib PK parameters were derived from blood samples collected from patients after the single administration, and at regular intervals during the first cycle of the dose-escalation and dose-expansion periods. Plasma concentrations of senaparib were determined using high-performance liquid chromatography-tandem mass spectrometry. Tumor response was assessed every 6 weeks per RECIST v1.1,[16] recording objective response rate (ORR), disease control rate (DCR), duration of response (DOR), and progression-free survival (PFS) by dose level for all patients and for those harboring BRCA^mut+ tumors.

O=C(c1cc(Cn2c(=O)[nH]c(=O)c3c(F)cccc32)ccc1F)N1CCN(c2ncccn2)CC1 [Senaparib]
1 n ev: SAEs, events (2 mg QD n = 1) | TEAE Grade ≥3, events (2 mg QD n = 1) | TRAEs Grade ≥3, events (5 mg QD n = 3)
0 n (%): ALT increased TRAE, All (2 mg QD n = 1) | ALT increased TRAE, Gr≥3 (2 mg QD n = 1) | AST increased TRAE, All (2 mg QD n = 1) | AST increased TRAE, Gr≥3 (2 mg QD n = 1) | Anemia TRAE, All (2 mg QD n = 1) | Anemia TRAE, Gr≥3 (2 mg QD n = 1) | Any TRAE, Gr≥3 (2 mg QD n = 1) | Appetite decreased TRAE, Gr≥3 (2 mg QD n = 1) | Asthenia TRAE, All (2 mg QD n = 1) | Asthenia TRAE, Gr≥3 (2 mg QD n = 1) | Blood bilirubin increased TRAE, All (2 mg QD n = 1) | Blood bilirubin increased TRAE, Gr≥3 (2 mg QD n = 1) | Blood creatinine increased TRAE, All (2 mg QD n = 1) | Blood creatinine increased TRAE, Gr≥3 (2 mg QD n = 1) | Hypokalemia TRAE, Gr≥3 (2 mg QD n = 1) | Nausea TRAE, All (2 mg QD n = 1) | Nausea TRAE, Gr≥3 (2 mg QD n = 1) | Neutrophil count decreased TRAE, All (2 mg QD n = 1) | Neutrophil count decreased TRAE, Gr≥3 (2 mg QD n = 1) | Platelet count decreased TRAE, All (2 mg QD n = 1) | Platelet count decreased TRAE, Gr≥3 (2 mg QD n = 1) | TEAEs leading to death, patients (2 mg QD n = 1) | TEAEs leading to dose discontinuation, patients (2 mg QD n = 1) | TEAEs leading to dose interruption, patients (2 mg QD n = 1) | TEAEs leading to dose reduction, patients (2 mg QD n = 1) | TRAEs Grade ≥3, patients (2 mg QD n = 1) | Vomiting TRAE, All (2 mg QD n = 1) | Vomiting TRAE, Gr≥3 (2 mg QD n = 1) | WBC decreased TRAE, All (2 mg QD n = 1) | WBC decreased TRAE, Gr≥3 (2 mg QD n = 1) | ALT increased TRAE, All (5 mg QD n = 3) | ALT increased TRAE, Gr≥3 (5 mg QD n = 3) | AST increased TRAE, All (5 mg QD n = 3) | AST increased TRAE, Gr≥3 (5 mg QD n = 3) | Appetite decreased TRAE, Gr≥3 (5 mg QD n = 3) | Asthenia TRAE, Gr≥3 (5 mg QD n = 3) | Blood bilirubin increased TRAE, Gr≥3 (5 mg QD n = 3) | Blood creatinine increased TRAE, All (5 mg QD n = 3) | Blood creatinine increased TRAE, Gr≥3 (5 mg QD n = 3) | Hypokalemia TRAE, All (5 mg QD n = 3) | Hypokalemia TRAE, Gr≥3 (5 mg QD n = 3) | Nausea TRAE, Gr≥3 (5 mg QD n = 3) | Neutrophil count decreased TRAE, Gr≥3 (5 mg QD n = 3) | Platelet count decreased TRAE, Gr≥3 (5 mg QD n = 3) | SAEs, patients (5 mg QD n = 3) | TEAEs leading to death, patients (5 mg QD n = 3) | TEAEs leading to dose discontinuation, patients (5 mg QD n = 3) | TEAEs leading to dose interruption, patients (5 mg QD n = 3) | TEAEs leading to dose reduction, patients (5 mg QD n = 3) | Vomiting TRAE, All (5 mg QD n = 3) | Vomiting TRAE, Gr≥3 (5 mg QD n = 3) | WBC decreased TRAE, Gr≥3 (5 mg QD n = 3) | ALT increased TRAE, Gr≥3 (10 mg QD n = 3) | AST increased TRAE, Gr≥3 (10 mg QD n = 3) | Anemia TRAE, Gr≥3 (10 mg QD n = 3) | Any TEAE, Gr≥3 (10 mg QD n = 3) | Any TRAE, Gr≥3 (10 mg QD n = 3) | Appetite decreased TRAE, Gr≥3 (10 mg QD n = 3) | Asthenia TRAE, All (10 mg QD n = 3) | Asthenia TRAE, Gr≥3 (10 mg QD n = 3) | Blood bilirubin increased TRAE, All (10 mg QD n = 3) | Blood bilirubin increased TRAE, Gr≥3 (10 mg QD n = 3) | Blood creatinine increased TRAE, All (10 mg QD n = 3)
2 (66.7) n (%): Anemia TRAE, All (5 mg QD n = 3)
13 n ev: TRAEs, events (5 mg QD n = 3)
1 (100) n (%): Any TEAE, All (2 mg QD n = 1) | Any TEAE, Gr≥3 (2 mg QD n = 1) | Any TEAE, patients (2 mg QD n = 1) | Any TRAE, All (2 mg QD n = 1) | Appetite decreased TRAE, All (2 mg QD n = 1) | Hypokalemia TRAE, All (2 mg QD n = 1) | SAEs, patients (2 mg QD n = 1) | TEAE Grade ≥3, patients (2 mg QD n = 1) | TRAEs, patients (2 mg QD n = 1)
28 n ev: Any TEAE, events (5 mg QD n = 3)
5 n ev: TEAE Grade ≥3, events (5 mg QD n = 3)
3 (100) n (%): Any TEAE, All (5 mg QD n = 3) | Any TEAE, Gr≥3 (5 mg QD n = 3) | Any TEAE, patients (5 mg QD n = 3) | Any TRAE, All (5 mg QD n = 3) | TEAE Grade ≥3, patients (5 mg QD n = 3) | TRAEs, patients (5 mg QD n = 3) | Any TEAE, All (10 mg QD n = 3) | Any TEAE, patients (10 mg QD n = 3) | Any TRAE, All (10 mg QD n = 3)
1 (33.3) n (%): Anemia TRAE, Gr≥3 (5 mg QD n = 3) | Any TRAE, Gr≥3 (5 mg QD n = 3) | Appetite decreased TRAE, All (5 mg QD n = 3) | Asthenia TRAE, All (5 mg QD n = 3) | Blood bilirubin increased TRAE, All (5 mg QD n = 3) | Nausea TRAE, All (5 mg QD n = 3) | Neutrophil count decreased TRAE, All (5 mg QD n = 3) | Platelet count decreased TRAE, All (5 mg QD n = 3) | TRAEs Grade ≥3, patients (5 mg QD n = 3) | WBC decreased TRAE, All (5 mg QD n = 3) | ALT increased TRAE, All (10 mg QD n = 3) | AST increased TRAE, All (10 mg QD n = 3) | Anemia TRAE, All (10 mg QD n = 3) | Appetite decreased TRAE, All (10 mg QD n = 3)
10 n ev: Any TEAE, events (10 mg QD n = 3)
9 n ev: Any TEAE, events (2 mg QD n = 1)
0 n ev: TEAEs leading to death, events (2 mg QD n = 1) | TEAEs leading to dose discontinuation, events (2 mg QD n = 1) | TEAEs leading to dose interruption, events (2 mg QD n = 1) | TEAEs leading to dose reduction, events (2 mg QD n = 1) | TRAEs Grade ≥3, events (2 mg QD n = 1) | SAEs, events (5 mg QD n = 3) | TEAEs leading to death, events (5 mg QD n = 3) | TEAEs leading to dose discontinuation, events (5 mg QD n = 3) | TEAEs leading to dose interruption, events (5 mg QD n = 3) | TEAEs leading to dose reduction, events (5 mg QD n = 3)
6 n ev: TRAEs, events (2 mg QD n = 1)
